This note sets out measurements from patent US12528773B2, “Non-lysosomal glucosylceramidase inhibitors and uses thereof” (ALECTOS THERAPEUTICS INC., priority 2020, dated 2026).

The term IC50 denotes the midpoint of a concentration-inhibition curve.

What all share (assay type): biochemical
The subject of experiment [1] is rat intestinal alpha-glucosidases. The experiment can be described thus: Inhibition of rat intestinal alpha-glucosidases (rat intestinal lysate, glucose detection). The following applies: compound concentration 25 μM, sucrose as substrate. A digest of the protocol:
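Rat intestinal acetone-powder lysate in citrate-phosphate pH 6.0 with 50 or 25 μM compound, 3.3% DMSO, 37 °C, 20 min. Sucrose reactions used 2.1 mg/mL lysate and 40 mM sucrose; maltose reactions 0.69 mg/mL lysate and 10 mM maltose. Glucose was detected by Amplex Red fluorescence at 10 min, or by hexokinase absorbance at 340 nm, relative to no-compound wells.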

Experiment [2] concerns the target T1, GBA2 (Homo sapiens (Human), UniProt Q9HCG7). The experiment can be described thus: Binding specificity for GBA2 over other molecules, Ki or IC50 ratio. An excerpt:
In some embodiments, one or more of the compounds according to the invention may specifically bind a GBA2. In alternative embodiments, one or more of the compounds according to the invention may specifically bind the active site of a GBA2. […] In alternative embodiments, one or more of the compounds according to the invention may specifically bind the human non-lysosomal glucosylceramidase (GBA2) over the human lysosomal glucosylceramidase (GCase) and/or the human cytosolic glucosylceramidase (GBA3). In alternative embodiments, one or more of the compounds according to the invention may specifically bind the human non-lysosomal glucosylceramidase (GBA2) over the human glucosylceramide synthase (GCS). In alternative embodiments, one or more of the compounds according to the invention may specifically bind the human non-lysosomal glucosylceramidase (GBA2) over an intestinal alpha-glucosidase, where the intestinal alpha-glucosidase may be a sucrase-isomaltase or a maltase-glucoamylase.

The target of experiment [3] is T1, GBA2. The experiment in a line: Inhibition of GBA2 in cell lysate (4-methylumbelliferone glucopyranoside substrate).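 Further: homogenate of stably transfected HEK293T cells pre-treated with a GCase inhibitor, test compound preincubated 5 min at 37 °C, substrate reaction 20 min at 37 °C.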 The conditions noted are these: HEK293T-overexpressing GBA2 cellular homogenate, pH 5.5; read-out: GBA2 IC50.

T1 sequence (Q9HCG7 whole entry): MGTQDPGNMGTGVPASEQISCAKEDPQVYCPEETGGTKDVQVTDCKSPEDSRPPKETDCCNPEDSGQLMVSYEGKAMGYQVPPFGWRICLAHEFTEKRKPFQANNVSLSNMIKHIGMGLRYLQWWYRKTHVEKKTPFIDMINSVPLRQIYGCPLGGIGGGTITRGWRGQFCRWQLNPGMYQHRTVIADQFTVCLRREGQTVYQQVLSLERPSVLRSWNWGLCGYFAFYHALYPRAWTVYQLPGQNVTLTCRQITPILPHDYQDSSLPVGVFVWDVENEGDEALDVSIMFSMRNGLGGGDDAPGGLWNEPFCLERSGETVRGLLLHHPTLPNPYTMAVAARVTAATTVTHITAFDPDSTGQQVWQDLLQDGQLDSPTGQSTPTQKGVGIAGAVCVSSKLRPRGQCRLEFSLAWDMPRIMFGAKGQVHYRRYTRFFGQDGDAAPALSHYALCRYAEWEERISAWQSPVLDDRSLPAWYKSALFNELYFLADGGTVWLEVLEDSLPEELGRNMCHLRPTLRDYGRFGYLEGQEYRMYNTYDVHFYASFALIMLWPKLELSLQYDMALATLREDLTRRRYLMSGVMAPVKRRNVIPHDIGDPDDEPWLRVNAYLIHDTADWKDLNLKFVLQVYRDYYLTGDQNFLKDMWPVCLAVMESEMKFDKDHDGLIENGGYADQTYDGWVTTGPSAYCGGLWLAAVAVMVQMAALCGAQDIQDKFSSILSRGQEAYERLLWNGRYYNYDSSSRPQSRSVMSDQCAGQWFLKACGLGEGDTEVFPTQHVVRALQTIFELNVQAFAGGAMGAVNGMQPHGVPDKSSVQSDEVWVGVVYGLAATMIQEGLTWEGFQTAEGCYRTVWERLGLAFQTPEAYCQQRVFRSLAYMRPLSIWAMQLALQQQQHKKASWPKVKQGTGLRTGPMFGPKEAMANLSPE

As to `O[C@H]1[C@H](O)CN(C[C@H]2CCCN(c3cccc4scnc34)C2)C[C@@H]1O` [Example 35, (3S,4R,5R)-1-(((R)-1-(benzo[d]thiazol-4-yl)piperidin-3-yl)methyl)piperidine-3,4,5-triol], the “rat α-glu. (% inhib.)” value in experiment [1] is 7%. In addition, on GBA2 [2], the “binding specificity, IC50(other molecule)/IC50(GBA2) or Ki ratio” value is “enhanced binding specificity”. Besides, at GBA2 [3], the IC50 was under 100 nM.

Regarding `O[C@H]1[C@H](O)CN(CCc2c(F)ccc(Cl)c2F)C[C@@H]1O` [Example 7, (3S,4r,5R)-1-(3-chloro-2,6-difluorophenethyl)piperidine-3,4,5-triol], the “rat α-glu. (% inhib.)” value in experiment [1] stood at 0%. For the same compound, the “binding specificity, IC50(other molecule)/IC50(GBA2) or Ki ratio” value on GBA2 [2] was “enhanced binding specificity”. Besides, the IC50 at GBA2 [3] is under 100 nM.

In the case of `O[C@H]1[C@H](O)CN(C[C@H]2CCCN(c3cccc(C(F)(F)F)n3)C2)C[C@@H]1O` [Example 30, (3S,4R,5R)-1-(((R)-1-(6-(trifluoromethyl)pyridin-2-yl)piperidin-3-yl)methyl)piperidine-3,4,5-triol], in experiment [1], the “rat α-glu. (% inhib.)” value is recorded as 6%. Further, on GBA2 [2], the “binding specificity, IC50(other molecule)/IC50(GBA2) or Ki ratio” value is reported as “enhanced binding specificity”. Besides, on GBA2 [3], the IC50 was under 100 nM.

With `Cc1n[nH]c(C)c1-c1cc(F)c(CCN2C[C@@H](O)[C@H](O)[C@@H](O)C2)c(F)c1` [Example 15, (3S,4r,5R)-1-(4-(3,5-dimethyl-1H-pyrazol-4-yl)-2,6-difluorophenethyl)piperidine-3,4,5-triol], the “rat α-glu. (% inhib.)” value in experiment [1] is given as 8%. In addition, on GBA2 [2], the “binding specificity, IC50(other molecule)/IC50(GBA2) or Ki ratio” value is on record as “enhanced binding specificity”. For the same compound, the IC50 at GBA2 [3] was under 100 nM.

Regarding `O[C@H]1[C@H](O)CN(C[C@H]2CC[C@@H](C(F)(F)F)CC2)C[C@@H]1O` [Example 2, (3S,4R,5R)-1-(((1s,4S)-4-(trifluoromethyl)cyclohexyl)methyl)piperidine-3,4,5-triol], the “rat α-glu. (% inhib.)” value in experiment [1] worked out at 4%. Further, the “binding specificity, IC50(other molecule)/IC50(GBA2) or Ki ratio” value at GBA2 [2] is “enhanced binding specificity”. Moreover, the IC50 on GBA2 [3] is under 100 nM.

`O[C@H]1[C@H](O)CN(CCc2c(F)cc(OCC3CC3)cc2F)C[C@@H]1O` [Example 9, (3S,4r,5R)-1-(4-(cyclopropylmethoxy)-2,6-difluorophenethyl)piperidine-3,4,5-triol]: the “rat α-glu. (% inhib.)” value in experiment [1] is reported as 0%. For the same compound, the “binding specificity, IC50(other molecule)/IC50(GBA2) or Ki ratio” value at GBA2 [2] is reported as “enhanced binding specificity”. On GBA2 [3], the 50% inhibitory concentration (IC50) is under 100 nM.

`O[C@H]1[C@H](O)CN(C[C@@H]2CCCN(c3cnccc3C(F)(F)F)C2)C[C@@H]1O` [Example 38, (3S,4S,5R)-1-(((S)-1-(4-(trifluoromethyl)pyridin-3-yl)piperidin-3-yl)methyl)piperidine-3,4,5-triol]: the “rat α-glu. (% inhib.)” value in experiment [1] was found to be 0%. The “binding specificity, IC50(other molecule)/IC50(GBA2) or Ki ratio” value at GBA2 [2] is “enhanced binding specificity”. On GBA2 [3], the IC50 is under 100 nM.

Take `O[C@H]1[C@H](O)CN(C[C@H]2CCCN(c3nc4ccccc4s3)C2)C[C@@H]1O` [Example 34, (3S,4R,5R)-1-(((R)-1-(benzo[d]thiazol-2-yl)piperidin-3-yl)methyl)piperidine-3,4,5-triol]: the “rat α-glu. (% inhib.)” value in experiment [1] is 2%. The “binding specificity, IC50(other molecule)/IC50(GBA2) or Ki ratio” value on GBA2 [2] was “enhanced binding specificity”. Also, the IC50 at GBA2 [3] is under 100 nM.

Turning to `CC(C)(F)[C@H]1CC[C@@H](CN2C[C@@H](O)[C@H](O)[C@@H](O)C2)CC1` [Example 3, (3S,4R,5R)-1-(((1s,4S)-4-(2-fluoropropan-2-yl)cyclohexyl)methyl)piperidine-3,4,5-triol], the “rat α-glu. (% inhib.)” value in experiment [1] is on record as 1%. Also, the “binding specificity, IC50(other molecule)/IC50(GBA2) or Ki ratio” value on GBA2 [2] is recorded as “enhanced binding specificity”. Moreover, the concentration for half-maximal inhibition (IC50) at GBA2 [3] is under 100 nM.
